# According to PubChem BioAssay AID608 (Sanford-Burnham Center for Chemical Genomics, 2007):
# The source made the active and inactive calls. No rule for the calls is given here.
# Target: Peptidyl-prolyl cis-trans isomerase FKBP1A (Homo sapiens) (UniProt P62942)
# Assay: FKBP12 binders, biophysical, NMR detection (AID 608)
# Conditions: NMR binding, purified FKBP12
# Peptidyl-prolyl cis-trans isomerase FKBP1A (Homo sapiens), sequence (P62942 whole entry, looked up): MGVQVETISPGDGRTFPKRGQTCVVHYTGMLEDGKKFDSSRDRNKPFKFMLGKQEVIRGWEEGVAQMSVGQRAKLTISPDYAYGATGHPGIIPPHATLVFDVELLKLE
row,Compound,Kd
1,CCN1C[C@@]2(COC)C3[C@@H](OC)[C@H]4[C@@H]1[C@]3(C(OC)C[C@H]2O)C1C[C@@]2(O)[C@H](OC(=O)c3ccccc3)C1[C@]4(OC(C)=O)[C@@H](O)[C@@H]2OC (some centres not stated),> 4 mM (inactive)
2,Cc1ccc(-n2cnnn2)c2cccnc12,> 4 mM (inactive)
3,Nc1ccc(Cl)nn1,> 4 mM (inactive)
4,C[C@@H]1[C@H]2[C@H](O[C@@H]3O[C@H](CO)[C@@H](O)[C@H](O)[C@H]3O)OC=C(C(=O)O)[C@H]2C[C@@H]1O,> 4 mM (inactive)
5,O=C1c2ccncc2C(=O)N1CNc1ccccn1,> 4 mM (inactive)
6,CCN(CC)c1nc2n(c(=O)n1)CCO2,> 4 mM (inactive)
7,O=C(O)CCCCCCCC(=O)O,> 4 mM (inactive)
8,Cc1cccnc1NC1=NCC(C)S1 (configuration not stated),> 4 mM (inactive)
9,Cc1nc(N)sc1C(=O)Nc1nccs1,> 4 mM (inactive)
10,S=C(NCC1CCCO1)NC1CC1 (configuration not stated),> 4 mM (inactive)
11,O=C(Cc1c(F)cccc1Cl)Nc1cccnc1,> 4 mM (inactive)
12,CNC(=O)c1cc2cccc(OC)c2oc1=O,> 4 mM (inactive)
13,C=C1[C@H]2CC[C@@]3(C)[C@H](c4ccoc4)OC(=O)C[C@]13O[C@H]1C[C@H](O)C(C)(C)[C@H](CC(=O)OC)[C@]12C,> 4 mM (inactive)
14,CSc1ccccc1NC(=O)c1ccoc1C,> 4 mM (inactive)
15,CC(C)=CCc1c(O)cc2oc(C)cc(=O)c2c1O,> 4 mM (inactive)
16,O=C1CCCN1c1ccc(S(=O)O)cc1,> 4 mM (inactive)
17,Cc1ccc2c(c1)CC[C@H]1CC(=O)CC[C@]21C,> 4 mM (inactive)
18,Cc1cc(O)c2c(c1O)C(=O)c1c(O)cc(C)c(O)c1C2=O,> 4 mM (inactive)
19,CC(=O)Nc1cccs1,> 4 mM (inactive)
20,Cc1cc(OCC(=O)N2CCOCC2)cc(C)c1Cl,inactive
21,Cc1nn(-c2ccccc2C(=O)O)c(=O)c2ccccc12,> 4 mM (inactive)
22,COC(=O)N1CCN(c2ccc(OC)cc2)CC1,> 4 mM (inactive)
23,Cc1ccccc1CSc1nncn1N,> 4 mM (inactive)
24,Cc1onc(-c2ccccc2)c1C(=O)O,> 4 mM (inactive)
25,NCc1oc(-c2ccccc2)cc1C(=O)O,> 4 mM (inactive)
26,O=C(c1ccc2c(c1)OCO2)N1CCC2(CC1)OCCO2,> 4 mM (inactive)

row,Compound,Kd
1,CC1CC2(NC(=O)NC2=O)C(C)CN1C (configuration not stated),> 4 mM (inactive)
2,COCc1c(CN)cnc(C)c1N,> 4 mM (inactive)
3,Cc1cc(OCC(=O)N2CCOCC2)c(C(C)C)cc1Cl,inactive
4,O=C(Nc1ccc(F)cc1F)c1ccco1,> 4 mM (inactive)
5,CCc1ccc(OCC(=O)N2CCOCC2)cc1,0.435 mM
6,O=C(O)CCN1CCOCC1,> 4 mM (inactive)
7,CC(C)NS(=O)(=O)c1ccc(OCC(=O)N2CCOCC2)cc1,inactive
8,CS(=O)(=O)Nc1nnc(Cc2ccccc2)s1,> 4 mM (inactive)
9,O=C(COc1ccc(S(=O)(=O)NC2CCCC2)cc1)N1CCOCC1,inactive
10,Cc1c(N=CN(C)C)c(=O)n(-c2ccccc2)n1C,> 4 mM (inactive)
11,Nc1ccc(CCC(=O)O)cc1,> 4 mM (inactive)
12,N#Cc1cnn(-c2ccc(Cl)cc2)c1N,> 4 mM (inactive)
13,Cc1cc(NC(=O)CCCn2cnc([N+](=O)[O-])n2)no1,> 4 mM (inactive)
14,O=C1CCC([N+](=O)[O-])C(c2ccccc2F)N1 (configuration not stated),> 4 mM (inactive)
15,CC1CCCN(C/C(O)=C(\C#N)c2nc3ccccc3[nH]2)C1 (configuration not stated),> 4 mM (inactive)
16,O=C(NC(=S)NN1CCOCC1)c1cccs1,> 4 mM (inactive)
17,Cc1ccc(Cl)cc1NS(=O)(=O)N1CCCCC1,inactive
18,C/C=C(\C)C(=O)OC1[C@@H]2C=C3C(CC[C@]4(C)C3CC(=O)O[C@H]4c3ccoc3)C(C)(C2=O)[C@@H](C(O)C(=O)OC)C1(C)C (some centres not stated),> 4 mM (inactive)
19,Cc1ccc(S(=O)(=O)CCc2ccccn2)cc1,> 4 mM (inactive)
20,CC(=O)c1ccc(CC2SC(N)=NC2=O)cc1 (configuration not stated),> 4 mM (inactive)
21,Nc1cc2ccccc2cn1,> 4 mM (inactive)
22,Cc1nnc2n(c1=O)N=C(c1ccccc1)CS2,> 4 mM (inactive)
23,Cc1cc(C)n2nc(C(=O)Nc3cccnc3)nc2n1,> 4 mM (inactive)
24,O=C(NCN1CCOCC1)c1cnccn1,> 4 mM (inactive)
25,Cn1nnc2cc(C(=O)NC3CCCCC3)ccc21,> 4 mM (inactive)
26,O=C(O)c1cnc2sc3ccccc3n2c1=O,> 4 mM (inactive)

row,Compound,Kd
1,COc1ccccc1-c1noc(-c2ccco2)n1,> 4 mM (inactive)
2,Cc1cc(C)n(-c2cccc3cccnc23)n1,> 4 mM (inactive)
3,O=C(Nc1cccc(O)c1)c1ccccc1,> 4 mM (inactive)
4,O=C1CCC(=O)N1c1cccc([N+](=O)[O-])c1,> 4 mM (inactive)
5,COc1cc(C2NC(=S)NC(C)=C2C(C)=O)ccc1O (configuration not stated),> 4 mM (inactive)
6,Cc1c(CCO)c(=O)n2c([nH]c3ccccc32)c1C#N,> 4 mM (inactive)
7,CNC(=O)c1ccccc1N,> 4 mM (inactive)
8,COC(=O)Nc1nc2c(C)cccc2s1,> 4 mM (inactive)
9,O=c1[nH]cnc2nn(-c3ccccc3)nc12,> 4 mM (inactive)
10,CN(C)c1ccc(NC(=O)CC(C(=O)O)N(C)C)cc1 (configuration not stated),> 4 mM (inactive)
11,O=C(O)CCCc1nc2ccccc2s1,> 4 mM (inactive)
12,O=C(O)CSc1nc2ccccc2c(=O)[nH]1,> 4 mM (inactive)
13,Cc1cc(NC(=O)c2cccc(S(C)(=O)=O)c2)no1,> 4 mM (inactive)
14,Nc1ncnc(NCCCO)c1[N+](=O)[O-],> 4 mM (inactive)
15,NC(=O)c1cccc(N2C(=O)C=CC2=O)c1,> 4 mM (inactive)
16,Cc1ccccc1NC(=O)CC1SC(N)=NC1=O (configuration not stated),> 4 mM (inactive)
17,CC(=O)Nc1ccc2c(c1)CCCC2=O,> 4 mM (inactive)
18,O=S1(=O)CCC(NC(=S)Nc2ccccn2)C1 (configuration not stated),> 4 mM (inactive)
19,Clc1ccccc1OCc1nc(-c2ccccn2)no1,> 4 mM (inactive)
20,Cc1cc(=O)c2ccccc2n1CC(N)=O,> 4 mM (inactive)
21,Cc1scc(C(=O)Nc2ccon2)c1-c1ccccc1,> 4 mM (inactive)
22,Nc1cc(F)ccc1-n1ccnc1,> 4 mM (inactive)
23,CC1CCC(N2CCN(c3ncccn3)CC2)CC1 (configuration not stated),> 4 mM (inactive)
24,CCN1C(=O)c2c(C)nc3ccccc3c2C1=O,> 4 mM (inactive)
25,Cc1ccnc(NS(=O)(=O)c2cccs2)c1,> 4 mM (inactive)
26,NC12CC3CC(C1)CC(C(=O)O)(C3)C2,> 4 mM (inactive)

row,Compound,Kd
1,O=C(O)C1=CCCNC1,> 4 mM (inactive)
2,C/C=C(\C)C(=O)O[C@@H]1c2c(ccc3ccc(=O)oc23)OC(C)(C)[C@@H]1OC(C)=O,> 4 mM (inactive)
3,Nc1cc(=O)[nH]c(=S)n1-c1ccc(F)cc1,> 4 mM (inactive)
4,Cc1c(N=Cc2ccc[nH]2)c(=O)n(-c2ccccc2)n1C,> 4 mM (inactive)
5,Cc1nnc2ccc(N3CCCC3)nn12,> 4 mM (inactive)
6,CC(=O)NC(=S)Nc1ccccc1N1CCOCC1,> 4 mM (inactive)
7,Cc1cc(C)n(S(=O)(=O)c2cc(C)c(C)cc2C)n1,> 4 mM (inactive)
8,Cc1ccccc1NC(=O)CSc1ccnc(=O)[nH]1,> 4 mM (inactive)
9,Nc1cccc(NC(=O)c2cccs2)c1,> 4 mM (inactive)
10,COc1ccc(C(N)=O)cc1NC(C)=O,> 4 mM (inactive)
11,CNC(=S)Nc1ncn(Cc2cccc(F)c2)n1,> 4 mM (inactive)
12,COc1cc(N)ccc1NC(=O)c1cccs1,> 4 mM (inactive)
13,CCOc1cc(S(=O)(=O)N2CCOCC2)ccc1F,> 4 mM (inactive)
14,Cn1cnc2ccc([N+](=O)[O-])cc2c1=O,> 4 mM (inactive)
15,CCc1ccccc1OCc1nnc(N)s1,> 4 mM (inactive)
16,O=C(O)CCC1=C2c3ccccc3CCN2C(=O)CC1,> 4 mM (inactive)
17,CCOc1ccccc1C(=O)NC1=NCCS1,> 4 mM (inactive)
18,Cc1cc2c(nn1)CCc1nonc1-2,> 4 mM (inactive)
19,COc1ccccc1-c1n[nH]c(=O)o1,> 4 mM (inactive)
20,Cc1sc(N)c(C(N)=O)c1C,> 4 mM (inactive)
21,CS(=O)(=O)CCCCN=C=S,> 4 mM (inactive)
22,O=C1CC(c2c[nH]c3ccccc23)C(=O)N1 (configuration not stated),> 4 mM (inactive)
23,NC(=O)CCn1ncc2ccccc21,> 4 mM (inactive)
24,Cc1cccc(CO)n1,> 4 mM (inactive)
